Source: US20250127799A1, “DRUG CONJUGATES FOR BONE MARROW PROTECTION” (priority 2023, published 2025)
Ends that are not written are not given here. Peptide text beside a SMILES is read from it. * marks the point of attachment. X1 = O=C(CCCCCN1C(=O)CC(*)C1=O)NCCCC(O)(P(=O)(O)O)P(=O)(O)O; X2 = O=P(O)(O)SCCNCCCN*

How the values were obtained:
[1] = tested on: Hs578T triple-negative breast cancer cells; test: CCK-8 cellular proliferation assay, co-culture with chemodrugs; assay type: cell-based; conditions: for cellular proliferation compared to Non-treatment Control: 72 h
Method: In this exemplary representative experiment, a CCK-8 cellular proliferation assay was conducted for Hs578T triple-negative breast cancer cells exposed to the Carboplatin with or without protective agents.
In another exemplary representative chemoprotection experiment, Paclitaxel was used instead of Carboplatin in the CCK-8 cellular proliferation assay for Hs578T cells.

human HSPCs = test: In vitro radioprotection for human HSPCs (CCK8 viability); conditions: for cellular viability compared to the group receiving no treatment at the same exposure dose: 2-8 Gy; for cellular viability: 50 μM for 4 h
Method: In this exemplary representative experiment, human HSPCs were seeded in a 96-well plate at a density of 2.5×10^4 per well (N=6 for each group). Next, cells were treated with a protective drug conjugate having a peptide sequence of CAPIGIAL (SEQ ID NO: 68) with acetylation at the N-terminus (e.g., AcCAPIGIAL; SEQ ID NO: 80) or amifostine alone at the final concentrations ranging from 0 to 100 μM for 4 h, followed by exposure to y-radiation (Cs-137) at 3 or 8 Gy (0.6 Gy/min). Two hours after the irradiation, the culture medium was replaced by a fresh medium. After 24 h of further incubation, a CCK8 assay was applied to evaluate the cell viability.
In this exemplary representative experiment, human HSPCs were seeded in a 96-well plate at a density of 2.5×10^4 per well (N=6 for each group).

[2] = tested on: A549 non-small cell lung cancer cells; test: CCK-8 cellular proliferation assay, co-culture with chemodrugs; assay type: cell-based; conditions: for cellular proliferation compared to Non-treatment Control: 72 h
Method: In this exemplary representative experiment, a CCK-8 cellular proliferation assay was conducted for A549 non-small cell lung cancer cells exposed to the Carboplatin with or without protective agents.
In another exemplary representative chemoprotection experiment, Paclitaxel was used instead of Carboplatin in the CCK-8 cellular proliferation assay for A549 cells.

[3] = in vivo; cited from earlier work
[4] = tested on: human bone marrow mononuclear cells; test: Colony forming unit assay, protection of cells exposed to carboplatin; assay type: cell-based; conditions: for CFU counts normalized to untreated cells: 50 μM carboplatin for 4 h
Method: In this exemplary representative chemoprotection experiment, a colony forming unit assay was conducted for bone marrow mononuclear cells exposed to carboplatin with or without the pre-treatment with protective agents. In brief, 1.1×10^4 human bone marrow mononuclear cells were suspended in 300 μL culture medium and mixed with 30 μL solutions of PBS (control), Amifostine, WR1065, or Conjugate (with the peptide sequence of CFLG (SEQ ID NO: 18)) at various concentrations. After 2 h of incubation, cells were washed and resuspended in 300 μL culture medium, followed by incubation with 50 μM carboplatin for 4 h. Next, cells were washed and resuspended in the colony forming medium for 14 days. The number of resultant CFU in each group was then determined, and the results were normalized to the group of cells without any treatment. […] In another exemplary representative chemoprotection experiment, Amifostine and Conjugate with the peptide sequence of CFLG (SEQ ID NO: 18) with concentrations ranging from 50 to 1,000 μM were evaluated.

[5] = Conjugate cleavage in fresh bone marrow aspirate (HPLC); assay type: in vitro ADME; conditions: human bone marrow aspirate, same donor, 37° C., up to 6 h
Method: The proteolytic cleavage of conjugates determines the therapeutic window, which is controlled by the specific peptide sequence. In a representative cleavage experiment, a […] stock solution of a conjugate (30 mg/mL) was mixed with 90 μL of fresh bone marrow aspirate, followed by incubation at 37° C. for up to 6 h. A 10 μL sample was taken every hour, diluted in 90 μL acetonitrile to precipitate proteins and extract conjugates and cleavage products. The concentrations of the conjugates in samples were determined by HPLC, normalized, and presented as the cleavage ratio.

[6] = molecular target: matrix metalloproteinase 9 (MMP9) (Homo sapiens, UniProt P14780); test: In vitro matrix metalloproteinase-based conjugate cleavage; assay type: biochemical; conditions: isolated enzyme, MMP9, 37° C., up to 20 h, read-out: T1/2 of cleavage (converted)
Sequence of matrix metalloproteinase 9 (MMP9) (P14780 94-707, species assumed): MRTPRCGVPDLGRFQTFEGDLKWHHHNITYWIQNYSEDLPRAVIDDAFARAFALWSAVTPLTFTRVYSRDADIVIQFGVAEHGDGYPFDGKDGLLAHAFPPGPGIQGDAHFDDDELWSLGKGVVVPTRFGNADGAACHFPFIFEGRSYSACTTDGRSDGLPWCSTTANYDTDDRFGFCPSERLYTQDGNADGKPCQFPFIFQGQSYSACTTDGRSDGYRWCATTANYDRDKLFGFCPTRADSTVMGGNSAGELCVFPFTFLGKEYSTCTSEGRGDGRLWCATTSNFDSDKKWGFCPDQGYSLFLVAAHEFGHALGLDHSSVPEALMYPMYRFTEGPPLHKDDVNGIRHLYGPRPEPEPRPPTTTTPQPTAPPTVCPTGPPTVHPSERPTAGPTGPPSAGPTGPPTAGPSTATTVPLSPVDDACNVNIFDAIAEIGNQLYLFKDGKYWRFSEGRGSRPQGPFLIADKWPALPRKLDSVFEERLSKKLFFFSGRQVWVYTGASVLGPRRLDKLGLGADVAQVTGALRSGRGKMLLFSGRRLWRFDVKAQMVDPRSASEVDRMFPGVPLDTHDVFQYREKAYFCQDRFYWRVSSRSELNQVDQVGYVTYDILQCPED
Method: In this exemplary representative cleavage experiment, a 90 μL stock solution of protective drug conjugate (1 mg/mL) was mixed with 2 μL of matrix metalloproteinase 9 (MMP9) (10 unit/μL) and 8.2 μL of 50 mM CaCl2 solution, followed by incubation at 37° C. for up to 20 h. A 10 μL sample was taken at 0.3, 1, 2, 4, 9, or 20 h for the HPLC analysis. Three conjugates having different peptide sequences (Conjugates 1-3) were used in this test: Conjugate 1-peptide sequence of CPLSLYAL (SEQ ID NO: 65); Conjugate 2-peptide sequence of CPLSLYSL (SEQ ID NO: 66); and Conjugate 3-peptide sequence of CPLGLAL (SEQ ID NO: 67). The concentrations of the conjugate residual in samples were normalized and presented as cleavage ratios.

CD2F1 male mice = test: In vivo radioprotective effects: 30-day survival after Cobalt-60 gamma irradiation; conditions: for survival rate: 12 h before 9.1 Gy
Method: (§1) CD2F1 male mice (N=16) were subcutaneously (sc) injected with a single dose of two different conjugates. For one protective drug conjugate (Conjugate 1), the tested doses were 200, 400, and 800 mg/kg. The structure of Conjugate 1 included amifostine as the protective drug, alendronate as the bone-targeting ligand, and a protease-cleavable peptide having the sequence of CKPLGLWAL (SEQ ID NO: 33) with acetylation at the N-terminus (e.g., AcCKPLGLWAL; SEQ ID NO: 74). […] The irradiated mice were monitored for survival for 30 days post-irradiation. […] For the vehicle control group, the mortalities of mice occurred during 8 to 17 days post-irradiation, and the final survival rate was 6.25% (1 out of 16 survived), indicating significant mortality by gamma-irradiation.
For another protective drug conjugate (Conjugate 2), the tested doses were 250, 500, 600, and 700 mg/kg, and the irradiation was conducted at 24 h post-drug administration. The structure of Conjugate 2 included amifostine as the protective drug, alendronate as the bone-targeting ligand, and a protease-cleavable peptide having the sequence of CPLGLYAL (SEQ ID NO: 29) with acetylation at the N-terminus (e.g., AcCPLGLYAL; SEQ ID NO: 76).
as §1, with “a” for “two different conjugates. For one”, “1), and” for “1),”, “250, 300,” for “200, 400,”, “350” for “800”, “0% (0” for “6.25% (1”
as §1, with “CD2F1 male mice (N=16) were subcutaneously (sc) injected CD2F1” for “CD2F1”, “a” for “two different conjugates. For one”, “1), and” for “1),”, “250, 300,” for “200, 400,”, “350” for “800”
CD2F1 male mice (N=16) were subcutaneously (sc) injected CD2F1 male mice (N=16) were subcutaneously (sc) injected with a single dose of a protective drug conjugate (Conjugate 1), and the tested doses were 50, 100, and 200 mg/kg. The structure of Conjugate 1 included amifostine as the protective drug, alendronate as the bone-targeting ligand, and a protease-cleavable peptide having the sequence of CKPLGLWAL (SEQ ID NO: 33) with acetylation at the N-terminus (e.g., AcCKPLGLWAL; SEQ ID NO: 74). […] The irradiated mice were monitored for survival for […] post-irradiation. […] For the vehicle control group, the mortalities of mice occurred during 8 to 17 days post-irradiation, and the final survival rate was 0% (0 out of 16 survived), indicating significant mortality by gamma-irradiation.
CD2F1 male mice (N=16) were subcutaneously (sc) injected CD2F1 male mice (N=16) were subcutaneously (sc) injected with a single dose of a protective drug conjugate, i.e., Conjugate 3. The tested doses were 250, 300, and 350 mg/kg. […]

With NCCCNCCSP(=O)(O)O [Amifostine] the “toxicity to Hs578T cells” value ([1]; 10 to 200 μM) was “non-toxic”, the “cellular viability compared to the group receiving no treatment at the same exposure dose” value (human HSPCs; 50 μM) was “much higher cellular viability” and the “toxicity to A549 cells” value ([2]; 10 to 200 μM) was “non-toxic”. The “bone marrow residence time” value [3] was less than 30 min, the pharmacokinetic circulating time [3] was less than 8 min and the “mitigation of Carboplatin-caused CFU reduction” value ([4]; pretreatment 50 to 1,000 μM, dose-dependent (FIG. 8B)) was “significantly mitigated”.

With N.N.O=C([O-])C1(C(=O)[O-])CCC1.[Pt+2] [Carboplatin] the “cellular proliferation compared to Non-treatment Control” value ([1]; 0.1 mM Carboplatin) was roughly 35%, the “cellular proliferation compared to Non-treatment Control” value ([2]; 0.1 mM Carboplatin) was roughly 30% and the “CFU counts normalized to untreated cells” value ([4]; no protective agent (FIG. 8A)) was roughly 40%. For the same molecule, the “CFU counts normalized to untreated cells” value ([4]; no protective agent (FIG. 8B)) was roughly 30%.

In the case of CC(=O)N[C@@H](CSC1CC(=O)N(CCCCCC(=O)NCCCC(O)(P(=O)(O)O)P(=O)(O)O)C1=O)C(=O)N[C@@H](CCCCN)C(=O)N1CCC[C@H]1C(=O)N[C@@H](CC(C)C)C(=O)NCC(=O)N[C@@H](CC(C)C)C(=O)N[C@@H](Cc1c[nH]c2ccccc12)C(=O)N[C@@H](C)C(=O)N[C@@H](CC(C)C)C(=O)NCCCNCCSP(=O)(O)O (stereo partly shown) [Conjugate 1] (Ac-C(X1)KPLGLWAL-X2), the “time to reach 50% conjugate cleavage” value [5] is reported as 2.4 h, the half-life at 0.898 mg/mL [6] is reported as roughly 2 h and the survival rate (CD2F1 male mice; 50 mg/kg sc) is reported as 75%. It also gave a survival rate (CD2F1 male mice; 100 mg/kg sc) of 93.75%, a 30-day survival rate (CD2F1 male mice; 200 mg/kg sc, 6 h before 9.2 Gy) of 68.75% and a survival rate (CD2F1 male mice; 200 mg/kg sc) of 93.75%. For the same molecule, the 30-day survival rate (CD2F1 male mice; 250 mg/kg sc, 9 h before 9.2 Gy) was 75%, the 30-day survival rate (CD2F1 male mice; 250 mg/kg sc, 12 h before 9.2 Gy) was 100% and the 30-day survival rate (CD2F1 male mice; 300 mg/kg sc, 9 h before 9.2 Gy) was 87.25%. For the same molecule, the 30-day survival rate (CD2F1 male mice; 300 mg/kg sc, 12 h before 9.2 Gy) was 87.5%, the 30-day survival rate (CD2F1 male mice; 350 mg/kg sc, 9 h before 9.2 Gy) was 56.25% and the 30-day survival rate (CD2F1 male mice; 350 mg/kg sc, 12 h before 9.2 Gy) was 81.25%. The 30-day survival rate (CD2F1 male mice; 400 mg/kg sc, 6 h before 9.2 Gy) was 81.25% and the 30-day survival rate (CD2F1 male mice; 800 mg/kg sc, 6 h before 9.2 Gy) was 68.75%.

In the case of CC(=O)O[C@H]1C(=O)[C@@]2(C)[C@H]([C@H](OC(=O)c3ccccc3)[C@]3(O)C[C@H](OC(=O)[C@H](O)[C@@H](NC(=O)c4ccccc4)c4ccccc4)C(C)=C1C3(C)C)[C@]1(OC(C)=O)CO[C@@H]1C[C@@H]2O [Paclitaxel], the “cellular proliferation compared to Non-treatment Control” value ([1]; 5 nM Paclitaxel) is reported as roughly 35% and the “cellular proliferation compared to Non-treatment Control” value ([2]; 5 nM Paclitaxel) is reported as roughly 30%.

For “Conjugate (AcCAPIGIAL): protective drug conjugate having peptide sequence CAPIGIAL with acetylation at the N-terminus (SEQ ID NO: 80) (Ac-CAPIGIAL; also: amifostine conjugate (site not given here))”, the cellular viability (human HSPCs; then 2 Gy (FIG. 6B)) was 91.9%, the cellular viability (human HSPCs; then 8 Gy (FIG. 6A)) was 61.1% and the cellular viability (human HSPCs; then 8 Gy (FIG. 6B)) was 59.6%. For the same molecule, the “cellular viability compared to the group receiving no treatment at the same exposure dose” value (human HSPCs; 50 μM) was “much higher cellular viability”, the “cellular viability relative to the control group” value (human HSPCs; 50 μM, 8 Gy) was roughly 2.3 fold and the “difference in cellular viability between conjugate and amifostine groups” value (human HSPCs; 50 μM, any exposure dose from 2 Gy to 8 Gy) was “no statistical difference”. For the same molecule, the “concentration of maximum radioprotective efficacy” value (human HSPCs; 8 Gy, 0-100 μM tested) was 50 µM and the radioprotective effect (human HSPCs; 50 or 100 μM, 3 Gy) was “significant radioprotective effect”.
